These molecules were tested against T1, Neutral amino acid transporter B(0) (Homo sapiens) (UniProt Q15758) (assay: Inhibition of ASCT2 in human A549 cells assessed as reduction in [13C]-Gln uptake at 50 uM relative to control). Conditions: not given.
T1 sequence (whole entry): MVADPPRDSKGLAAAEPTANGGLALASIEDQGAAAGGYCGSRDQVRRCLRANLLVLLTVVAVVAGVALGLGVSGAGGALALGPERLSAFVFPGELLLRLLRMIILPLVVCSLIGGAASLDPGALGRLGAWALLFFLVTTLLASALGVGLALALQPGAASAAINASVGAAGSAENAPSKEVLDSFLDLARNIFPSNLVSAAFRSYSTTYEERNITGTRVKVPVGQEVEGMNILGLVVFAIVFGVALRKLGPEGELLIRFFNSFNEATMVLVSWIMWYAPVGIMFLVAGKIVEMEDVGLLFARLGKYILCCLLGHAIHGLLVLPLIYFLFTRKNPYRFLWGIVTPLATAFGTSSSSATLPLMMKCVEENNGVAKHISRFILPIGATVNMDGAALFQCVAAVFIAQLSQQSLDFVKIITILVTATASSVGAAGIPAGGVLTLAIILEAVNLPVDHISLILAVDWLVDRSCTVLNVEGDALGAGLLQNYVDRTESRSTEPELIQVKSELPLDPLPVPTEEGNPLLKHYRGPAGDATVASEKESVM
Assay type: cell-based

SMILES	inhibition [%]
Cc1ccccc1C#CCOc1ccccc1CN(CC[C@H](N)C(=O)O)Cc1ccccc1OCC#Cc1ccccc1C	96.4
C#CCOc1ccccc1CN(CC[C@H](N)C(=O)O)Cc1ccccc1OCC#C	15

Continued, values first:

inhibition [%]	SMILES
81.9	Cc1cccc(C#CCOc2ccccc2CN(CC[C@H](N)C(=O)O)Cc2ccccc2OCC#Cc2cccc(C)c2)c1
92.5	COc1ccc(C#CCOc2ccccc2CN(CC[C@H](N)C(=O)O)Cc2ccccc2OCC#Cc2ccc(OC)cc2)cc1
88.2	Cc1ccc(OCC#Cc2ccccc2)c(CN(CC[C@H](N)C(=O)O)Cc2cc(C)ccc2OCC#Cc2ccccc2)c1

What follows are molecules tested against T1, Neutral amino acid transporter B(0) (Homo sapiens) (assay: Inhibition of ASCT2 in HEK293 cells assessed as reduction in [13C]-Gln uptake at 50 uM relative to control). Conditions: not given.
Assay type: cell-based

SMILES	inhibition [%]
Cc1ccccc1C#CCOc1ccccc1CN(CC[C@H](N)C(=O)O)Cc1ccccc1OCC#Cc1ccccc1C	92.4
C#CCOc1ccccc1CN(CC[C@H](N)C(=O)O)Cc1ccccc1OCC#C	16.2

Now from value to molecule:

inhibition [%]	SMILES
85.1	Cc1cccc(C#CCOc2ccccc2CN(CC[C@H](N)C(=O)O)Cc2ccccc2OCC#Cc2cccc(C)c2)c1
96.2	COc1ccc(C#CCOc2ccccc2CN(CC[C@H](N)C(=O)O)Cc2ccccc2OCC#Cc2ccc(OC)cc2)cc1
82.7	Cc1ccc(OCC#Cc2ccccc2)c(CN(CC[C@H](N)C(=O)O)Cc2cc(C)ccc2OCC#Cc2ccccc2)c1

These molecules were tested on A549 (assay: Antiproliferative activity against human A549 cells assessed as reduction in cell viability after 72 hrs by MTT assay). Conditions: A549, 72 h.
Assay type: functional, cell-based

SMILES	IC50 [µM]
Cc1ccccc1C#CCOc1ccccc1CN(CC[C@H](N)C(=O)O)Cc1ccccc1OCC#Cc1ccccc1C	14.3
C#CCOc1ccccc1CN(CC[C@H](N)C(=O)O)Cc1ccccc1OCC#C	> 50

More lines, in order of falling IC50, values ahead:

IC50 [µM]	SMILES
19.2	Cc1cccc(C#CCOc2ccccc2CN(CC[C@H](N)C(=O)O)Cc2ccccc2OCC#Cc2cccc(C)c2)c1
14.7	COc1ccc(C#CCOc2ccccc2CN(CC[C@H](N)C(=O)O)Cc2ccccc2OCC#Cc2ccc(OC)cc2)cc1
12.5	Cc1ccc(OCC#Cc2ccccc2)c(CN(CC[C@H](N)C(=O)O)Cc2cc(C)ccc2OCC#Cc2ccccc2)c1
